Assays:
RAW264.7 cells [1] = assay: ATTO-465-MPE-298 internalization in RAW264.7 cells; assay type: cell-based, murine; details: 30 min pretreatment with PP1 3 μg/mL, PP2 3 μg/mL or cytochalasin D 2 μg/mL, ATTO-465-MPE-298 500 nM 15 min, acid wash, n = 3 in triplicate
Description: RAW 264.7 cells (ATCC) were seeded at 125,000 cells per well in a 96-well plate and allowed to adhere overnight in Roswell Park Memorial Institute Medium (RPMI, Wisent Inc, Saint-Jean-Baptiste, QC, Canada) supplemented with 10% FBS and 1% penicillin/streptomycin at 37 °C in 5% CO2. The cells were weaned off FBS for 2 h in RPMI-25mM Hepes, supplemented with 1% penicillin/streptomycin and 0.2% BSA. The kinetics of ligand internalization (incubation at 37 °C) and plasma membrane bound (incubation at 4 °C) were initiated by adding ATTO-465-MPE-298 at different time points. After incubation, the cells were washed 3 times with cold PBS to determine the total fluorescence and the cell surface bounds or with sodium acetate pH 4 buffer at 4 °C to assess the internalized fraction, followed by lysis in 0.5N NaOH/0.05% sodium dodecyl sulfate (SDS). For the characterization of the endocytosis pathways elicited by MPE-298, cells were pretreated with specific inhibitors 30 min before adding the fluorescent peptide as the tracer. Briefly, after being weaned off FBS, the cells were preincubated at 37 °C in 5% CO2 with cytochalasin D (2 μg/mL), as an inhibitor of actin polymerization, and with PP1 (3 μg/mL) and PP2 (3 μg/mL), as inhibitors of Src kinases. After 30 min of incubation, ATTO-465-MPE-298 was added for an additional 15 min. The fluorescence was analyzed with excitation/emission wavelengths at 510/580 nm using a BioTek Synergy2 (Agilent, Santa Clara, CA, USA)microplate reader.

CD36 = biological target: T1, CD36 (Mus musculus, UniProt Q08857); assay: BRET-based CD36 internalization assay; assay type: cell-based; details: 30 min pretreatment: PP1 3 μg/mL, cytochalasin D 2 μg/mL, piceatannol 40 μM, 2-bromopalmitate 100 μM, SSO 100 μM, BI-0115 5 μM; then ligand 15 min
T1 construct: CD36 ORF was amplified from pCMV3-mCD36-GFPSpark; expressed in transfected cells; host or cells: J774A.1 murine macrophages, transiently co-transfected with mCD36-RlucII and rGFP-CAAX
Excerpt: For the construction of mouse CD36-RlucII, CD36 ORF was amplified from pCMV3-mCD36-GFPSpark using the 5′-primer NheI-CD36-Forward: […] and 3′-primer HindIII-CD36-Reverse: […] primers to introduce NheI and HindIII digestion sites sequences. The final product was subcloned in-frame into NheI/HindIII of pcDNA3.1/hygromycin (+) plasmid containing the RlucII [19]. The rGFP-CAAX plasmid, constructed as previously described, was kindly provided by Dr. Stephane Laporte.
For the BRET assay, J774A.1 cells were seeded in a 96-well plate (white, flat bottom) at a density of 35,000 cells/well in DMEM supplemented with 10% FBS and 1% penicillin/streptomycin. Cells were grown at 37 °C in 5% CO2 and 90% humidity. The next day, the culture medium was changed to DMEM 10% FBS and 0.2% penicillin/streptomycin, supplemented with 5-azacytidine (1 μM) for 2 h. Cells were transiently transfected using a mixed solution containing mCD36-RlucII plasmid (25.6 ng), rGFP-CAAX plasmid (31.7 ng), and pcDNA3.1(+) for a total of 80 ng cDNA/well. TransIT-X2® reagent was used at a cDNA-to-reagent ratio of 1 μg to 4 μL. Twenty-four hours later, cells were starved for 2 h in Tyrode’s buffer (140 mM NaCl, 2.7 mM KCl, 1 mM CaCl2, 12 mM NaHCO3, 5.6 mM D-glucose, 0.5 mM MgCl2, 0.37 mM NaH2PO4, and 25 mM HEPES, pH 7.4) supplemented with 0.01% BSA. Luminescence was induced with Prolume Purple (1.5 μM final) for 2 min in Tyrode’s buffer. Luminescence signal was measured using a Tecan Spark Multimode microplate reader (Tecan Trading AG, Männedorf, Switzerlnd) in the BRET2 mode with filter sets of 420/70 nm and 515/30 nm for detecting RlucII and rGFP signals, respectively. The BRET ratio was determined as follows: [(intensity emitted by the rGFP/intensity emitted by the Rluc2) − (intensity emitted by the rGFP/intensity emitted by the Rluc2 for the CD36-RLuc2 control cells)].
For kinetic study, transiently co-transfected J774A.1 cells were incubated at different times with MPE-298 (100 nM) or oxLDL (25 μg/mL). In experimental protocols involving pharmacological inhibitors, cells transiently co-transfected were pretreated with PP1 (3 μg/mL), cytochalasin D (2 μg/mL), piceatannol (40 μM), 2-bromopalmitate (100 μM), SSO (100 μM), and BI-0115 (5 μM) for 30 min. CD36 internalization was then induced with MPE-298 and oxLDL for 15 min. For the BRET saturation studies, the cells were transiently transfected with a fixed concentration of mCD36-RlucII plasmid (25.6 ng) and increasing concentrations of rGFP-CAAX plasmid ranging from 0 to 77 ng for 24 h.

RAW264.7 cells [2] = assay: Mitochondrial membrane potential (JC-1) in RAW264.7 cells; assay type: cell-based, murine; details: for effect of inhibitor on oxLDL-elicited mitochondrial membrane depolarization: Figures S4D, 5G; for effect of inhibitor on MPE-298's reversal of oxLDL-elicited mitochondrial membrane depolarization: SSO 100 μM, PP1 3 μg/mL, 2-BP 100 μM, BI-0115 5 μM, Figure 5D,G
Description: For the measurement of the mitochondrial membrane potential (ΔΨM), treated cells were incubated in HBSS with 5,5′,6,6′-tetrachloro-1,1′,3,3′-tetraethylbenzimidazolylcarbocyanine iodide (JC-1, 5 μM), a membrane-permeable cationic dye (Invitrogen-Life Technologies, Carlsbad, CA, USA). After 20 min, cells were extensively washed with HBSS. Fluorescence from aggregated JC-1 was measured with an excitation wavelength of 550 nm and emission wavelength of 600 nm, and fluorescence from JC-1 monomer was detected with an excitation wavelength of 485 nm and emission wavelength of 535 nm. The ΔΨM was determined from the ratio of intensities at 600 nm and 535 nm.

RAW264.7 cells [3] = assay: mtROS production (MitoSOX Red) in RAW264.7 cells; assay type: cell-based, murine; details: for effect of inhibitor on oxLDL-elicited mtROS production: 30 min pre-exposure, oxLDL 25 μg/mL 4 h, Figures S4C, 5F; for effect of inhibitor on MPE-298's inhibition of oxLDL-elicited mtROS production: SSO 100 μM, PP1 3 μg/mL, cytochalasin D 2 μg/mL, 2-BP 100 μM, BI-0115 5 μM, Figure 5A,B,F
Description: RAW264.7 cells (17,000 cells/well) or M1 BMDM (60,000 cells/well) in complete medium (RPMI 1640 supplemented with 10% FBS and 1% penicillin/streptomycin), were seeded in 96-well tissue culture plates and incubated overnight at 37 °C in 5% CO2. On the day of experimentation, cells were starved in RPMI medium supplemented with 1% penicillin/streptomycin and 0.2% BSA for 1 h. Cells were first pretreated with MPE-298 for 1 h and stimulated or not with oxLDL for 4 h. In other experiments, cells were preincubated with inhibitors as indicated in the figure legends prior to MPE-298 incubation and oxLDL stimulation. After the stimulation period, cells were washed with Hanks’ balanced salt solution (HBSS, Wisent Inc.) and incubated with a mixture of MitoSOX Red (5 μM), a mitochondrial superoxide indicator, and Hoechst-33342 (4 μM), a nuclear staining dye, for 20 min at 37 °C. The fluorescence intensities were analyzed using a Synergy2 (BioTek) microplate reader with the following filter sets: excitation/emission at 510/580 nm for MitoSox and 350/461 nm for Hoechst-33342. Fluorescence intensity of MitoSox was normalized by fluorescence intensity of Hoescht-33342.

p66Shc (Ser36) = assay: Western blot of p66Shc phosphorylation in RAW264.7 cells; assay type: cell-based, murine; details: preincubation before oxLDL, BI-0115 5 μM, SSO 100 μM, Figures 7A, S5
Description: (§1) Murine RAW264.7 cells or M1 BMDMs were seeded in 6-well plates. The next day, cells were starved for 4 h and treated with MPE-298 (100 nM) or oxLDL (25 μg/mL) for the indicated times. Cells were washed with cold PBS, then lysed for 30 min in ice-cold radioimmunoprecipitation assay buffer (RIPA) (150 mM NaCl, 50 mM Tris-HCl, 1% Triton X-100, 0.2% SDS, 50 mM NaF, and 2 mM EDTA, pH 7.4) containing protease and phosphatase inhibitors (Pierce Biotechnology, Waltham, MA, USA). Cell lysates were centrifuged at 15,000× g for 20 min at 4 °C.
(§2) The protein concentration of supernatants was determined by a bicinchoninic acid (BCA) assay (Pierce Biotechnology, Waltham, MA, USA). Equal amounts of protein extracts were separated on 4–12% SDS–polyacrylamide gels and transferred to polyvinylidene difluoride (PVDF) membranes (Bio-Rad Laboratories, Hercules, CA, USA) for immunoblotting. Membranes were blotted with primary antibodies p47phox and Rac1/2/3 for phosphorylated Syk (Tyr348), as well as SRC family kinases (Tyr416), Lyn (Tyr397), JNK (Thr183/Tyr185), and p66Shc (Ser36). […] Immunoblotted bands were detected by enhanced chemiluminescence with West Femto chemiluminescent substrate (Thermo Scientific, Waltham, MA, USA) using a ChemiDoc MP Imaging System (Bio-Rad Laboratories, Hercules, CA, USA). […]

CCL2 = CCL2 secretion, ELISA; assay type: cell-based, mouse; details: RAW264.7, SSO 100 μM, Figure 4G
Description: RAW264.7 cells were seeded at a density of 150,000/well in 48-well plates. The next day, the cells were weaned for 4 h in DMEM supplemented with 0.2% BSA, exposed to MPE-298 or oxLDL or the combination of MPE-298 and oxLDL, and incubated at 37 °C in 5% CO2 for 16 h. After the incubation period, media were collected and assessed for CCL2 chemokine using a mouse ELISA detection kit (Invitrogen-Life Technologies, Carlsbad, CA, USA) following the manufacturer’s instructions. For experiments using inhibitors, the cells were pre-exposed to SSO for 30 min prior to stimulation with MPE-298 or oxLDL.

JNK (Thr183/Tyr185) = assay: Western blot of JNK phosphorylation in RAW264.7 cells; assay type: cell-based, murine; details: preincubation before oxLDL, BI-0115 5 μM, SSO 100 μM, Figures 7A, S5
Description: as §1, §2

| SMILES | decrease of uptake of fluorescently labeled MPE-298 (RAW264.7 cells [1]) [%] | effect of inhibitor pretreatment on MPE-298- and oxLDL-induced loss of BRET signal (CD36) | effect of inhibitor on oxLDL-elicited mitochondrial membrane depolarization (RAW264.7 cells [2]) | effect of inhibitor on MPE-298's reversal of oxLDL-elicited mitochondrial membrane depolarization (RAW264.7 cells [2]) | effect of inhibitor on oxLDL-elicited mtROS production (RAW264.7 cells [3]) | effect of inhibitor on MPE-298's inhibition of oxLDL-elicited mtROS production (RAW264.7 cells [3]) | effect on oxLDL-induced p66Shc phosphorylation (p66Shc (Ser36)) | effect of preincubation on oxLDL-induced CCL2 secretion (CCL2; 30 min preincubation) | effect of pre-exposure on MPE-298's effects on oxLDL-triggered CCL2 release (CCL2) | effect on oxLDL-induced JNK phosphorylation (JNK (Thr183/Tyr185)) |
| --- | --- | --- | --- | --- | --- | --- | --- | --- | --- | --- |
| CC(C)(C)n1nc(-c2ccc(Cl)cc2)c2c(N)ncnc21 [PP2] | 41 | – | – | – | – | – | – | – | – | – |
| Cc1ccc(-c2nn(C(C)(C)C)c3ncnc(N)c23)cc1 [PP1] | 45 | completely abolished | prevented | did not block | neither SSO nor PP1 and 2-BP altered | blocked the protective effect | – | – | – | – |
| CCCCCCCC/C=C\CCCCCCCC(=O)ON1C(=O)CC(S(=O)(=O)O)C1=O (centres unmarked) [SSO, sulfosuccinimidyl oleate] | – | completely abolished | prevented | did not block | neither SSO nor PP1 and 2-BP altered | blocked the protective effect | did not prevent | unaltered | completely abolished | did not prevent |
| Oc1cc(O)cc(/C=C/c2ccc(O)c(O)c2)c1 [piceatannol] | – | completely abolished | – | – | – | – | – | – | – | – |
| CCCCCCCCCCCCCCC(Br)C(=O)O (centres unmarked) [2-BP, 2-bromohexadecanoic acid] | – | abolish | prevented | did not block | neither SSO nor PP1 and 2-BP altered | blocked | – | – | – | – |
| C=C1[C@@H](C)[C@H]2[C@H](Cc3ccccc3)NC(=O)[C@]23[C@H](OC(C)=O)/C=C/[C@@](C)(O)C(=O)[C@@H](C)C/C=C/[C@H]3[C@@H]1O [cytochalasin D] | 53 | completely abolished | prevented | – | – | blocked the protective effect | – | – | – | – |
